Test results reported in patent EP1131297B1, “CERTAIN SUBSTITUTED CAPROLACTAMS, PHARMACEUTICAL COMPOSITIONS CONTAINING THEM AND THEIR USE IN TREATING TUMORS” (Novartis AG, priority 1998, dated 2000).
Converted amounts (≈) assume the structure as drawn. Where two headings read alike, the source gives them in different places.

Tests used:
[1] = Water solubility
[2] = tested on: MDA-MB-435 tumor xenografts; test: Human tumor xenograft growth inhibition in athymic nude mouse model; type: in vivo, athymic (nu/nu) mice
Experimental: The histologic tumor type employed was MDA-MB-435 breast carcinoma.
Positive controls are carried out with doxorubicin administered 3 times per week i.v.
Anti-tumor activity was expressed as %T/C (Δ MTV of treated group ö Δ MTV of control group X100).

[3] = tested on: MDA-MB-435 breast carcinoma; test: Anchorage Dependent Growth Monolayer Assay (ADGMA), MTS readout; type: cell-based; conditions: average ± S.D., 3-day exposure, A490
Description: As indicated above, all of the compounds of formula I, and their corresponding pharmaceutically acceptable acid addition salts, are anti-tumor agents and are, therefore, useful in inhibiting the growth of various lymphomas, sarcomas, carcinomas, myelomas, and leukemia cell lines. […] This assay was adapted from the 60 cell line assay used by the National Cancer Institute (NCI) with the following modifications: 1) a single cell line representative for the important tumor type, viz., MDA-MB-435 breast carcinoma was utilized; 2) a tetrazolium derivative, viz., MTS, was utilized to determine cell density.
The ADGMA compares the number of viable cells following a 3-day exposure to a test compound relative to a number of cells present at the time the test compound was added. […] The absorbance at 490 nm (A490) of the formazan derivative is proportional to the number of viable cells. The IC50 for a test compound is the concentration of compound required to reduce the final cell number to 50% of the final control cell number. If cell proliferation is inhibited, the assay further defines compounds as cytostatic (cell number after 3-day compound incubation >cell number at time of compound addition) or cytotoxic (cell number after 3-day compound incubation <cell number at time of compound addition).
The MDA-MB-435 breast carcinoma line was obtained from the American Type Culture Collection (ATCC) and used between passages 4-20 following thawing. MDA-MB-435 breast carcinoma was maintained and plated in DME/F12 medium containing 10% fetal bovine serum, 15 mM HEPES (pH=7.4), penicillin 100 units/mL, and streptomycin 100 µg/mL.
Cell lines are trypsinized and counted using a Coulter counter to determine plating densities. Cells are then plated in their respective maintenance media (100 µL/well) in 96 well plates at the following densities: MDA-MB-435, 3,000 cells/well. The number of cells plates as determined in preliminary experiments, results in cell densities of 75-90% of confluency by 4 days after plating. Initial cell densities, assayed one day after plating, are roughly 0.15-0.20 absorbance units greater than the media blank. Ninety-six well plates are seeded on day 0 and the test compounds are added on day 1. A control plate is created for each cell line that receives media only in row A and cells in row B. One day following plating, test compounds are added (in a final volume of 100 µL) to the test plates. Control plates receive 10 µL MTS mixture (prepared fresh on day of addition to cell plates at a ratio of 10 µL of a 0.92 mg/mL solution of PMS to a 190 µL of a 2 mg/mL solution of MTS) and 100 µL media. A490 of control plates is read 4h after MTS addition to determine initial cell density values for each cell line. Three days after addition of test compound, 10 µL/well of MTS mixture is added to the test plates and A490 is read 4h later. A490 values for wells containing cells are corrected for media absorbance, then normalized to initial density readings to determine percent net growth. IC50 values are determined from graphs of percent net growth as a function of compound concentration. Percent net growth is calculated as (Cell + Drug A490 - Initial A490/Cell + Drug Vehicle A490 - Initial A490).

[4] = 10 µmol/kg i.v., 3X/week for 3 weeks
[5] = 33 µmol/kg i.v., 3X/week for 3 weeks
[6] = 100 µmol/kg i.v., 3X/week for 3 weeks
[7] = Mus musculus, MDA-MB-435, iv, 504 h, read-out: %T/C
[8] = Mus musculus, MDA-MB-435, iv, 504 h, 10 µmol/kg i.v., 3X/week for 3 weeks, * = statistically significant (p=<0.05), read-out: %T/C
[9] = Mus musculus, MDA-MB-435, iv, 504 h, 33 µmol/kg i.v., 3X/week for 3 weeks, * = statistically significant (p=<0.05), read-out: %T/C
[10] = 2 mg/kg i.v., 3X/week for 3 weeks (positive control)

CO[C@@H](C(=O)N[C@H]1CC[C@@H](OC(=O)C2CCCCC2)CNC1=O)[C@H](O)[C@@H](O)[C@H](O)/C=C/C(C)(C)C [Ex. 1, (2R, 3R, 4S, 5R, 6E)-3,4,5-trihydroxy-2-methoxy-8,8-dimethyl-N-[(3S, 6R)-hexahydro-2-oxo-6-(cyclohexylcarbonyl)oxy-2H-azepin-3-yl]non-6-enamide]
solubility [1]: 3700 µg/mL (≈ 7.42 mM)
Dead/Total [2, 4]: 0/8
Δ MTV [2, 4]: 107 mm^3
Dead/Total [2, 5]: 0/8
Δ MTV [2, 5]: 43 mm^3
Dead/Total [2, 6]: 0/8
Δ MTV [2, 6]: -11 mm^3
response vs control in vivo at 10 µmol/kg [2, 7]: 61%
response vs control in vivo at 33 µmol/kg [2, 7]: 24%
response vs control in vivo at 100 µmol/kg [2, 7]: -6%
IC50 ([3]; Homo sapiens, MDA-MB-435, 72 h): 68 ± 40 nM

CO[C@@H](C(=O)N[C@H]1CC[C@@H](OC(=O)C2CCCCCC2)CNC1=O)[C@H](O)[C@@H](O)[C@H](O)/C=C/C(C)(C)C [Ex. 3]
Dead/Total [2, 4]: 0/8
Δ MTV [2, 4]: 69 mm^3
Dead/Total [2, 5]: 0/8
Δ MTV [2, 5]: 49 mm^3
response vs control in vivo at 10 µmol/kg [2, 8]: 39%
response vs control in vivo at 33 µmol/kg [2, 9]: 28%
IC50 ([3]; Homo sapiens, MDA-MB-435, 72 h): 32 ± 14 nM

CO[C@@H](C(=O)N[C@H]1CC[C@@H](OC(=O)CCc2cccnc2)CNC1=O)[C@H](O)[C@@H](O)[C@H](O)/C=C/C(C)(C)C [Ex. 5, (2R, 3R, 4S, 5R, 6E)-3,4,5-trihydroxy-2-methoxy-8,8-dimethyl-N-[(3S, 6R)-hexahydro-2-oxo-6-(1-oxo-3-[3-pyridyl]propoxy)-2H-azepin-3-yl]non-6-enamide]
Dead/Total [2, 4]: 0/8
Δ MTV [2, 4]: 130 mm^3
Dead/Total [2, 5]: 0/8
Δ MTV [2, 5]: 62 mm^3
response vs control in vivo at 10 µmol/kg [2, 8]: 92%
response vs control in vivo at 33 µmol/kg [2, 9]: 44%
IC50 ([3]; Homo sapiens, MDA-MB-435, 72 h): 465 ± 204 nM

CO[C@@H](C(=O)N[C@H]1CC[C@@H](OC(=O)CC2CCCCC2)CNC1=O)[C@H](O)[C@@H](O)[C@H](O)/C=C/C(C)(C)C [Ex. 6, (2R, 3R, 4S, 5R, 6E)-3,4,5-trihydroxy-2-methoxy-8,8-dimethyl-N-[(3S, 6R)-hexahydro-2-oxo-6-(cyclohexylmethylcarbonyl)oxy-2H-azepin-3-yl]non-6-enamide]
Dead/Total [2, 4]: 0/8
Δ MTV [2, 4]: 66 mm^3
Dead/Total [2, 5]: 0/8
Δ MTV [2, 5]: 48 mm^3
response vs control in vivo at 10 µmol/kg [2, 8]: 47%
response vs control in vivo at 33 µmol/kg [2, 9]: 34%
IC50 ([3]; Homo sapiens, MDA-MB-435, 72 h): 65 ± 1 nM

CO[C@@H](C(=O)N[C@H]1CC[C@@H](OC(=O)Cc2ccccc2)CNC1=O)[C@H](O)[C@@H](O)[C@H](O)/C=C/C(C)(C)C [Ex. 7, (2R, 3R, 4S, 5R, 6E)-3,4,5-trihydroxy-2-methoxy-8,8-dimethyl-N-[(3S, 6R)-hexahydro-2-oxo-6-(1-oxo-2-phenylethoxy)-2H-azepin-3-yl]non-6-enamide]
Dead/Total [2, 4]: 0/8
Δ MTV [2, 4]: 101 mm^3
Dead/Total [2, 5]: 0/8
Δ MTV [2, 5]: 61 mm^3
response vs control in vivo at 10 µmol/kg [2, 8]: 72%
response vs control in vivo at 33 µmol/kg [2, 9]: 43%
IC50 ([3]; Homo sapiens, MDA-MB-435, 72 h): 262 ± 70 nM

CO[C@@H](C(=O)N[C@H]1CC[C@@H](OC(=O)Cc2ccc(Cl)c(Cl)c2)CNC1=O)[C@H](O)[C@@H](O)[C@H](O)/C=C/C(C)(C)C [Ex. 8, (2R, 3R, 4S, 5R, 6E)-3,4,5-trihydroxy-2-methoxy-8,8-dimethyl-N-[(3S, 6R)-hexahydro-2-oxo-6-(1-oxo-2-[3,4-dichlorophenyl]ethoxy)-2H-azepin-3-yl]non-6-enamide]
Dead/Total [2, 4]: 0/8
Δ MTV [2, 4]: 87 mm^3
Dead/Total [2, 5]: 0/8
Δ MTV [2, 5]: 94 mm^3
response vs control in vivo at 10 µmol/kg [2, 8]: 62%
response vs control in vivo at 33 µmol/kg [2, 9]: 67%
IC50 ([3]; Homo sapiens, MDA-MB-435, 72 h): 175 ± 7 nM

COc1ccc(CC(=O)O[C@@H]2CC[C@H](NC(=O)[C@H](OC)[C@H](O)[C@@H](O)[C@H](O)/C=C/C(C)(C)C)C(=O)NC2)cc1 [Ex. 9, (2R, 3R, 4S, 5R, 6E)-3,4,5-trihydroxy-2-methoxy-8,8-dimethyl-N-[(3S, 6R)-hexahydro-2-oxo-6-(1-oxo-2-[4-methoxyphenyl]ethoxy)-2H-azepin-3-yl]non-6-enamide]
Dead/Total [2, 4]: 0/8
Δ MTV [2, 4]: 107 mm^3
Dead/Total [2, 5]: 0/8
Δ MTV [2, 5]: 68 mm^3
response vs control in vivo at 10 µmol/kg [2, 8]: 76%
response vs control in vivo at 33 µmol/kg [2, 9]: 48%
IC50 ([3]; Homo sapiens, MDA-MB-435, 72 h): 335 ± 141 nM

CCCCCCCCCCOc1ccc(C(=O)O[C@@H]2CC[C@H](NC(=O)[C@H](OC)[C@H](O)[C@@H](O)[C@H](O)/C=C/C(C)(C)C)C(=O)NC2)cc1 [Ex. 10, (2R, 3R, 4S, 5R, 6E)-3,4,5-trihydroxy-2-methoxy-8,8-dimethyl-N-[(3S, 6R)-hexahydro-2-oxo-6-([4-n-decyloxyphenyl]carbonyl)oxy-2H-azepin-3-yl]non-6-enamide]
Dead/Total [2, 4]: 0/8
Δ MTV [2, 4]: 115 mm^3
Dead/Total [2, 5]: 0/8
Δ MTV [2, 5]: 4 mm^3
response vs control in vivo at 10 µmol/kg [2, 8]: 64%
response vs control in vivo at 33 µmol/kg [2, 9]: 2%
IC50 ([3]; Homo sapiens, MDA-MB-435, 72 h): 8 ± 4 nM

CO[C@@H](C(=O)N[C@H]1CC[C@@H](OC(=O)/C=C/c2ccccc2)CNC1=O)[C@H](O)[C@@H](O)[C@H](O)/C=C/C(C)(C)C [Ex. 11]
Dead/Total [2, 4]: 0/8
Δ MTV [2, 4]: 135 mm^3
Dead/Total [2, 5]: 0/8
Δ MTV [2, 5]: 76 mm^3
response vs control in vivo at 10 µmol/kg [2, 7]: 76%
response vs control in vivo at 33 µmol/kg [2, 7]: 43%
IC50 ([3]; Homo sapiens, MDA-MB-435, 72 h): 19 ± 5 nM

CCCCCCCCCCc1ccc(C(=O)O[C@@H]2CC[C@H](NC(=O)[C@H](OC)[C@H](O)[C@@H](O)[C@H](O)/C=C/C(C)(C)C)C(=O)NC2)cc1 [Ex. 12, (2R, 3R, 4S, 5R, 6E)-3,4,5-trihydroxy-2-methoxy-8,8-dimethyl-N-[(3S, 6R)-hexahydro-2-oxo-6-([4-n-decylphenyl]carbonyl)oxy-2H-azepin-3-yl]non-6-enamide]
Dead/Total [2, 4]: 0/8
Δ MTV [2, 4]: 78 mm^3
Dead/Total [2, 5]: 0/8
Δ MTV [2, 5]: 11 mm^3
response vs control in vivo at 10 µmol/kg [2, 7]: 52%
response vs control in vivo at 33 µmol/kg [2, 7]: 7%
IC50 ([3]; Homo sapiens, MDA-MB-435, 72 h): 34 ± 46 nM

CO[C@@H](C(=O)N[C@H]1CC[C@@H](OC(=O)Cc2ccsc2)CNC1=O)[C@H](O)[C@@H](O)[C@H](O)/C=C/C(C)(C)C [Ex. 13, (2R, 3R, 4S, 5R, 6E)-3,4,5-trihydroxy-2-methoxy-8,8-dimethyl-N-[(3S, 6R)-hexahydro-2-oxo-6-(1-oxo-3-[3-thiophenyl]ethoxy)-2H-azepin-3-yl]non-6-enamide]
IC50 [3]: 300 nM

COc1cccc2c1C(=O)c1c(O)c3c(c(O)c1C2=O)C[C@@](O)(C(=O)CO)C[C@@H]3O[C@H]1C[C@H](N)[C@H](O)[C@H](C)O1 [doxorubicin, reference compound]
Dead/Total [2, 10]: 0/8
Δ MTV [2, 10]: 74 mm^3
response vs control in vivo at 2 mg/kg ([2]; Mus musculus, MDA-MB-435, iv, 504 h, 2 mg/kg i.v., 3X/week for 3 weeks (positive control), * = statistically significant (p=<0.05), read-out: %T/C): 42%
IC50 ([3]; Homo sapiens, MDA-MB-435, 72 h): 137 ± 105 nM

(2R, 3R, 4S, 5R, 6E)-3,4,5-trihydroxy-2-methoxy-8,8-dimethyl-N-[(3S, 6R)-hexahydro-2-oxo-6-(1-oxo-3-[3-indolyl]ethoxy)-2H-azepin-3-yl]non-6-enamide [Ex. 14]
IC50 [3]: 1240 ± 200 nM
